Molecular target: T1, mortalin (GRP75, mitochondrial Stress-70 protein) (Homo sapiens, UniProt P38646)
T1 construct: gene HSPA9
Experiment: SPR competition (mortalin pre-incubated with MKT-077, injected over immobilized p53)
Type: binding

T1 sequence (P38646 47-679): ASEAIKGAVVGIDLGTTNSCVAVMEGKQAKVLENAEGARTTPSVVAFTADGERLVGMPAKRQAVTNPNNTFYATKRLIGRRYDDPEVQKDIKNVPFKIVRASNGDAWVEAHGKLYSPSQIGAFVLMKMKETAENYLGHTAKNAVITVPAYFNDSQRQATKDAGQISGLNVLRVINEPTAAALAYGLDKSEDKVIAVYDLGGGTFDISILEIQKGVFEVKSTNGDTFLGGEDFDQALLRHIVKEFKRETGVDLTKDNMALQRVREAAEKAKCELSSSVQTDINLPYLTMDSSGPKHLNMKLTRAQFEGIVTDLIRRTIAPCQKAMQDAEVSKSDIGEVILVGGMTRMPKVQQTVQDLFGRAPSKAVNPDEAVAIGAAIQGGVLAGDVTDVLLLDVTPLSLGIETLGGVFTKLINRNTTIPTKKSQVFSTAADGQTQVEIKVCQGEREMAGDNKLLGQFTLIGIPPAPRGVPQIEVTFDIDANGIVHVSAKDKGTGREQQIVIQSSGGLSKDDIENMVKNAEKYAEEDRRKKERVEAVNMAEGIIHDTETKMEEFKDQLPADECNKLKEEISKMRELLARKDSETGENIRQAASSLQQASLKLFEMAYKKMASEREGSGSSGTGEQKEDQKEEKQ
T1 sequence (P04637 whole entry partner): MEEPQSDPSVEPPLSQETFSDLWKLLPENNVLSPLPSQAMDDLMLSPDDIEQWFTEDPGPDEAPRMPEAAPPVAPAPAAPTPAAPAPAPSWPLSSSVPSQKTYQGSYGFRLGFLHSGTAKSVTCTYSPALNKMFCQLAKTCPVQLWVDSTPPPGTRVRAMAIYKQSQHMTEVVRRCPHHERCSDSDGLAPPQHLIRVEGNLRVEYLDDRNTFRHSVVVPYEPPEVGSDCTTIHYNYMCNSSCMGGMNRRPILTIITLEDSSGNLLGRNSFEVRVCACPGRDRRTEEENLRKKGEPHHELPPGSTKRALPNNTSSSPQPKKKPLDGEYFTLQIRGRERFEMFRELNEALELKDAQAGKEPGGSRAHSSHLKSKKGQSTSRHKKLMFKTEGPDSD

For CCn1c(=O)/c(=C2\Sc3ccccc3N2C)s/c1=C\c1cccc[n+]1CC [MKT-077], the “SPR competition (mortalin pre-incubated with MKT-077, injected over immobilized)” value was 843.4 nM.
